In one data set the target is T1, CDK6 (Homo sapiens, UniProt Q00534).
T1 construct: Percentage values are normalized to DMSO-treated MM.1S cells and the respective loading controls; endogenous in cells; host or cells: MM.1S (human multiple myeloma)
Description: CDK6 degradation, western blot of MM.1S cells. Conditions: 16 h. It counts as cell-based. From the text: (§1) We determined the concentration of both kinases and CRBN, the latter in order to control the expression of the corresponding ligase. Since IMiDs, such as pomalidomide, cause the degradation of the lymphoid transcription factors Ikaros (IKZF1) and Aiolos (IKZF3) through the involvement of CRBN,[53],[54] this undesired effect was inspected. […] As further characteristics of CDK4/6d, the desired selectivity of CDK6 over CDK4 degradation and the unwanted influence on the IKZF1 concentration were determined. […] Next, we determined the concentration- and time-dependent activity of 11 (Fig. S2, ESI ^†).
(§2) Multiple myeloma, leukaemia, and murine cell lines:
(§3) After respective designated treatments, cells were washed with 1× PBS and lysed in IP lysis buffer (Pierce) containing HALT protease and phosphatase inhibitor cocktail (Thermo Scientific). Sodium dodecyl sulfate-polyacrylamide gel electrophoresis (SDS-PAGE) was performed with 5–20 µg of protein loaded per sample. Gel electrophoresis was carried out at a constant voltage. Proteins were transferred onto Immobilon-P transfer membranes (Millipore). Membranes were blocked with 5% milk in Tris Buffered Saline with 0.05% Tween 20 (TBS-T) followed by overnight incubation at 4 °C with shaking in primary antibodies diluted in 5% BSA in TBS-T. After incubation with respective secondary HRP-conjugated antibodies diluted in 5% milk in TBST, detection of proteins was performed using either WesternBright ECL HRP substrate or WesternBright Sirius HRP substrate (Advansta). Chemiluminescence was detected with ChemiDoc™ XRS+ System (Bio-Rad). For further detection of other proteins on the same membrane, membranes were subjected to incubation in Restore Western Blot Stripping Buffer, followed by re-blocking, and further probing of proteins was […]
(In general: In western blotting, separated proteins are transferred to a membrane and probed.)

The next data set has as its target T2, CDK4 (Homo sapiens, UniProt P11802).
T2 construct: Percentage values are normalized to DMSO-treated MM.1S cells and the respective loading controls; endogenous in cells; host or cells: MM.1S (human multiple myeloma)
The data set is described as follows: CDK4 degradation, western blot of MM.1S cells. It counts as cell-based. The note with it: 16 h; for Effect of MDM2 ligands on CDK4 levels: indicated concentrations.
Excerpt: as §1, §2, §3

A further data set concerns the target T3, IKZF1 (Homo sapiens, UniProt Q13422+Q96SW2).
T3 construct: endogenous in cells; host or cells: MM.1S (human multiple myeloma)
Description: Neosubstrate IKZF1 degradation, western blot of MM.1S cells.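 As to all read-outs here: test concentration 0.1 µM.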 It counts as cell-based. Conditions: 16 h, normalized to DMSO (100%); for remaining activity at 0.1 µM: MM1.S, read-out: D IKZF1: remaining IKZF1 levels.
Excerpt: as §1, §2, §3

Data set [1] is described as follows: elog D7.4 by chromatographic (HPLC) method. It counts as physicochemical. The note with it: Polaris C18-A column, pH 7.4, read-out: elog D7.4 (experimental distribution coefficient at pH 7.4). As to the method: Supplementary Information: Physical Chemistry
N. Molecular Descriptor Calculation […]
O. Physicochemical Measurements
The determination of the elog D7.4 values was performed by a chromatographic method according to […]
The column was a Polaris C18-A column (2 mm I.D., 50 mm length, 3 μm particle size) from Agilent Technologies. A linear mobile phase gradient was applied with […] TRIS buffer adjusted to pH 7.4 and MeCN. Therefore, the gradient was run from 5% […]
between the runs with a constant flow-rate of 0.8 ml/min and a temperature of 25 °C. The output wavelength of the detector was set to 269.5 nm. In order to calibrate the log D7.4 to the retention time, 6 different drugs with known log D7.4 were dissolved in DMSO and 10 µl were injected […]
Approximately 1 mg of the samples was dissolved in DMSO and 5 µl were injected. Analyses were conducted in duplicates. Subsequently, the mean retention times of the analytes were taken to calculate their log D7.4 values with aid of the calibration line.

The mark [2] stands for this setting: MM1.S, 0.1 μM, MM.1S cells, normalized to DMSO (100%), read-out: D CDK6: remaining CDK6 levels.
Where [3] appears, read: MM1.S, 0.1 μM, MM.1S cells, normalized to DMSO (100%), read-out: D CDK4: remaining CDK4 levels.
Setting [4] is: 1 μM, MM.1S cells, normalized to DMSO (100%).

Each structure is given as a SMILES string. Where two headings read alike, the source gives them in different places.

T1 sequence (Q00534 whole entry): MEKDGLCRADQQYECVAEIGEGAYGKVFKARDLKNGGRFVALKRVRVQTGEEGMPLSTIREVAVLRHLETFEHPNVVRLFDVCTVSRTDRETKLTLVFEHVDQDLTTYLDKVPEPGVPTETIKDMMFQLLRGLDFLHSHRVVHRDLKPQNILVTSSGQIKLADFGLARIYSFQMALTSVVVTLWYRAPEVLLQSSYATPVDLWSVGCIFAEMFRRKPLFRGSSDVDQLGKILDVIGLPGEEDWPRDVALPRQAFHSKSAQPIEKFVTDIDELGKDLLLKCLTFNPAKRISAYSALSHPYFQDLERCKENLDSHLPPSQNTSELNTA
T3 sequence (Q13422 whole entry): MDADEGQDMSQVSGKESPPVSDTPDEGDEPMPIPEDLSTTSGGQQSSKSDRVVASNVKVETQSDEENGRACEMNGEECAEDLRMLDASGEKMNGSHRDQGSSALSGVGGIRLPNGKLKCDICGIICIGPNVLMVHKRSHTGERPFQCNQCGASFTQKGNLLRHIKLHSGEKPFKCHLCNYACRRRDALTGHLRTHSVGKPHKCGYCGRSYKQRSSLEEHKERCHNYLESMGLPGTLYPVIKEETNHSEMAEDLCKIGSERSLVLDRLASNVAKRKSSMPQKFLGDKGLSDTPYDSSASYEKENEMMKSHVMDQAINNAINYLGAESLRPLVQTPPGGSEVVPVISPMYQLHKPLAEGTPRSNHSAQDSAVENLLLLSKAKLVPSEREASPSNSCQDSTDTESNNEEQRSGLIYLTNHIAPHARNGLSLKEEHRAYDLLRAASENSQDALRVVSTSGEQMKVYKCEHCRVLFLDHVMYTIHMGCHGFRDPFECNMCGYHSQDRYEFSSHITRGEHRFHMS
T3 sequence (Q96SW2 whole entry): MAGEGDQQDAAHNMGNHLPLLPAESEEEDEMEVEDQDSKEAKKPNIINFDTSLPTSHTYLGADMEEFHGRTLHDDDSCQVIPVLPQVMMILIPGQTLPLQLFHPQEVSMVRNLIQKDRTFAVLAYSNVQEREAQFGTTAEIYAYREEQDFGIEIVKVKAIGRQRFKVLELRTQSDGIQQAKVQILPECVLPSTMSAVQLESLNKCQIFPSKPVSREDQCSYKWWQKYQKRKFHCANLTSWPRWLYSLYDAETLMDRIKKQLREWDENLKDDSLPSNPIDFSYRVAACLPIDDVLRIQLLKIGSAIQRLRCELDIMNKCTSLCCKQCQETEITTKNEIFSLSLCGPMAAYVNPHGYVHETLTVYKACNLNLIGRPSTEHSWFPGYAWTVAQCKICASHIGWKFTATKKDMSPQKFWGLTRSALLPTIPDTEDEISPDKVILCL
T3 sequence (Q16531 whole entry partner): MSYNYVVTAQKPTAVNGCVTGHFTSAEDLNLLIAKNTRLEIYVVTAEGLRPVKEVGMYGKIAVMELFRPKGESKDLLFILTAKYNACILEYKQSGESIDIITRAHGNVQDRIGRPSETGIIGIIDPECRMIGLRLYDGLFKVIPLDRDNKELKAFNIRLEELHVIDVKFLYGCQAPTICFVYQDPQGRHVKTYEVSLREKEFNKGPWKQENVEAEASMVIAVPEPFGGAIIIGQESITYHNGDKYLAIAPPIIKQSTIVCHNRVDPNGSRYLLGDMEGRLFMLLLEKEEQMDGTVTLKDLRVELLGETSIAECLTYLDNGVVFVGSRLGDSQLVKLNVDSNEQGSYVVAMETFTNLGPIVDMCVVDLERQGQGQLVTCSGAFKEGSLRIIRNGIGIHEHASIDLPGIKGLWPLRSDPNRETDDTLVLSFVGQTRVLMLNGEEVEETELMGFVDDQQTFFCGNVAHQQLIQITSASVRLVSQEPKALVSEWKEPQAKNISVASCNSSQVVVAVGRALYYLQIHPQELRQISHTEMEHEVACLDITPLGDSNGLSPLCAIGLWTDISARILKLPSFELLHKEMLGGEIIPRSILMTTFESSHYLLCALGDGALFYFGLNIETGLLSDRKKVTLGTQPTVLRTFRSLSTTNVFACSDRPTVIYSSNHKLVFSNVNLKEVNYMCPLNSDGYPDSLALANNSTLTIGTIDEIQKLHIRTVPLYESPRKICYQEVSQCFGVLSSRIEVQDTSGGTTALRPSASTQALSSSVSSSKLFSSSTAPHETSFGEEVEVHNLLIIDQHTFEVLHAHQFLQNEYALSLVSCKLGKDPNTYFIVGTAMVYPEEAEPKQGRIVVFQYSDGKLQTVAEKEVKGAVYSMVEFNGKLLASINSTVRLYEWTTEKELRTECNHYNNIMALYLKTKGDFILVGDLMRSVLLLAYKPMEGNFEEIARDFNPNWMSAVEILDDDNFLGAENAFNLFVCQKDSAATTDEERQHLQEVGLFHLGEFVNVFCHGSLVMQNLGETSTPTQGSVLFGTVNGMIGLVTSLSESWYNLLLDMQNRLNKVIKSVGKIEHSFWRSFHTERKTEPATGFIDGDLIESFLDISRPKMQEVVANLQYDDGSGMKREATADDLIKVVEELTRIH
T2 sequence (P11802 whole entry): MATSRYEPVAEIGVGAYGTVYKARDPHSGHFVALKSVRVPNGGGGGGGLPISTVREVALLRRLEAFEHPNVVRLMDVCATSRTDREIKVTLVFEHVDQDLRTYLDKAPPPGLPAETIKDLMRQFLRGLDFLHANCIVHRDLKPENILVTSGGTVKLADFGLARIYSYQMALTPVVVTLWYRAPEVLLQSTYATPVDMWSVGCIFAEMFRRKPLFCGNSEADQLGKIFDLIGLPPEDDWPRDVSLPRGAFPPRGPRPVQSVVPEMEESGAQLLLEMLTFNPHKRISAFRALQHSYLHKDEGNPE

In the case of `Nc1cccc2c1C(=O)N(C1CCC(=O)NC1=O)C2=O` (centres unmarked) [3 (POM), pomalidomide, reference compound], the remaining activity at 0.1 µM at CDK6 (setting [2]) and on CDK4 (setting [3]) was 91% in each case. Further, the “D IKZF1: remaining IKZF1 levels” value at IKZF1 (0.1 μM) worked out at 17%.
Regarding `COc1cc(C(=O)O)ccc1NC(=O)[C@@H]1N[C@@H](CC(C)(C)C)[C@](C#N)(c2ccc(Cl)cc2F)[C@H]1c1cccc(Cl)c1F` [6 (Idasanutlin), idasanutlin, reference compound], the “Selectivity ratio D CDK4/D CDK6 for the degradation of CDK6 over CDK4” value (from here on “Selectivity ratio D CDK4/D CDK6”) on CDK6 (0.1 μM, MM.1S cells) came to 0.9. For the same compound, the remaining activity at 0.1 µM amounted to 83% on CDK6 (setting [2]) and 78% on CDK4 (setting [3]). Besides, the remaining activity at 1 µM was 70% on CDK6 (MM1.S, 1 μM, MM.1S cells, normalized to DMSO (100%), read-out: D CDK6: remaining CDK6 levels) and 40% at CDK4 (MM1.S, 1 μM, MM.1S cells, normalized to DMSO (100%), read-out: D CDK4: remaining CDK4 levels). For the same compound, the “Effect of MDM2 ligands on CDK4 levels” value on CDK4 (MM.1S cells) was “dose-dependent effects on CDK4 levels”.
Consider `CC(C)[C@@H](CS(=O)(=O)C(C)C)N1C(=O)[C@@](C)(CC(=O)O)C[C@H](c2cccc(Cl)c2)[C@H]1c1ccc(Cl)cc1` [AMG232, reference compound], for which, at CDK4 (MM.1S cells), the “Effect of MDM2 ligands on CDK4 levels” value was “diminished CDK4 levels in a dose-dependent manner”.
Turning to `CC(=O)c1c(C)c2cnc(Nc3ccc(N4CCN(C(=O)COCCOCCNc5cccc6c5C(=O)N(C5CCC(=O)NC5=O)C6=O)CC4)cn3)nc2n(C2CCCC2)c1=O` (centres unmarked) [compound 12], the chromatographic logD in data set [1] came out at 2.8. Moreover, at CDK6 (0.1 μM, MM.1S cells), the “Selectivity ratio D CDK4/D CDK6” value is listed as 2.3. Also, the remaining activity at 0.1 µM on CDK6 (setting [2]) was determined as 8.4%; at CDK4 (setting [3]) it was 19%; at IKZF1, 0.8%.
In the case of `CC(=O)c1c(C)c2cnc(Nc3ccc(N4CCN(C(=O)COCCOCCOCCNc5cccc6c5C(=O)N(C5CCC(=O)NC5=O)C6=O)CC4)cn3)nc2n(C2CCCC2)c1=O` (centres unmarked) [compound 13], the chromatographic logD in data set [1] was found to be 2.8. On CDK6 (0.1 μM, MM.1S cells), the “Selectivity ratio D CDK4/D CDK6” value is recorded as 1.9. The remaining activity at 0.1 µM at CDK6 (setting [2]) was 7.7%; at CDK4 (setting [3]), 15%; at IKZF1, 1%.
The like results for `CC(=O)c1c(C)c2cnc(Nc3ccc(N4CCN(C(=O)CCCCOCCOCCOCCNc5cccc6c5C(=O)N(C5CCC(=O)NC5=O)C6=O)CC4)cn3)nc2n(C2CCCC2)c1=O` (centres unmarked) [compound 14] were, in that order, 3.1, 3.3, 7.8%, 26% and 0.8%.
As for `CC(=O)c1c(C)c2cnc(Nc3ccc(N4CCN(C(=O)CCC(=O)NCCCOCCCCOCCCNc5cccc6c5C(=O)N(C5CCC(=O)NC5=O)C6=O)CC4)cn3)nc2n(C2CCCC2)c1=O` (centres unmarked) [compound 15], the chromatographic logD in data set [1] amounted to 3.1. Also, the “Selectivity ratio D CDK4/D CDK6” value at CDK6 (0.1 μM, MM.1S cells) is reported as 1.4. Besides, the remaining activity at 0.1 µM stood at 65% on CDK6 (setting [2]), 91% on CDK4 (setting [3]) and 56% at IKZF1.
As for `CC(=O)c1c(C)c2cnc(Nc3ccc(N4CCN(C(=O)CCCCOCCCCCOCCCCCCNc5cccc6c5C(=O)N(C5CCC(=O)NC5=O)C6=O)CC4)cn3)nc2n(C2CCCC2)c1=O` (centres unmarked) [compound 16], in data set [1], the chromatographic logD stood at 4.6. At CDK6 (0.1 μM, MM.1S cells), the “Selectivity ratio D CDK4/D CDK6” value is listed as 2.4. The remaining activity at 0.1 µM at CDK6 (setting [2]) was determined as 32%; on CDK4 (setting [3]), 76%; at IKZF1 it was 6.7%.
As to `CC(=O)c1c(C)c2cnc(Nc3ccc(N4CCN(CCOCCOCC(=O)N[C@H](C(=O)N5C[C@H](O)C[C@H]5C(=O)NCc5ccc(-c6scnc6C)cc5)C(C)(C)C)CC4)cn3)nc2n(C2CCCC2)c1=O` [compound 23], in data set [1], the chromatographic logD turned out to be 2.7. Moreover, the “Selectivity ratio D CDK4/D CDK6” value at CDK6 (0.1 μM, MM.1S cells) stood at 7.4. Besides, the values for the remaining activity at 0.1 µM at CDK6 (setting [2]) and at CDK4 (setting [3]) were 8.2% and 61%, respectively.
In the case of `CC(=O)c1c(C)c2cnc(Nc3ccc(N4CCN(CCOCCOCCOCC(=O)N[C@H](C(=O)N5C[C@H](O)C[C@H]5C(=O)NCc5ccc(-c6scnc6C)cc5)C(C)(C)C)CC4)cn3)nc2n(C2CCCC2)c1=O` [compound 24], the chromatographic logD in data set [1] was 3.5. Further, on CDK6 (0.1 μM, MM.1S cells), the “Selectivity ratio D CDK4/D CDK6” value is listed as 5.7. The remaining activity at 0.1 µM is 14% at CDK6 (setting [2]) and 80% at CDK4 (setting [3]).
As for `CC(=O)c1c(C)c2cnc(Nc3ccc(N4CCN(CCCCCCOCCCCCOCCCCC(=O)N[C@H](C(=O)N5C[C@H](O)C[C@H]5C(=O)NCc5ccc(-c6scnc6C)cc5)C(C)(C)C)CC4)cn3)nc2n(C2CCCC2)c1=O` [compound 25], the chromatographic logD in data set [1] amounted to 4.8. Moreover, the remaining activity at 0.1 µM at CDK6 (setting [2]) was 40%; at CDK4 (setting [3]), greater than 95%.
The like results for `CC(=O)c1c(C)c2cnc(Nc3ccc(N4CCN(CCCCCCCCOc5cc(-c6scnc6C)ccc5CNC(=O)[C@@H]5C[C@@H](O)CN5C(=O)[C@H](C(C)C)N5Cc6ccccc6C5=O)CC4)cn3)nc2n(C2CCCC2)c1=O` [compound 28] were, in that order, 4.5, 62% and greater than 95%.
As to `CC(=O)c1c(C)c2cnc(Nc3ccc(N4CCN(CCOCCOCCOc5cc(-c6scnc6C)ccc5CNC(=O)[C@@H]5C[C@@H](O)CN5C(=O)[C@H](C(C)C)N5Cc6ccccc6C5=O)CC4)cn3)nc2n(C2CCCC2)c1=O` [compound 29], the chromatographic logD in data set [1] is 3.2. Besides, the results for the remaining activity at 0.1 µM at CDK6 (setting [2]) and on CDK4 (setting [3]) were 29% and greater than 95%, respectively.
Consider `CC(=O)c1c(C)c2cnc(Nc3ccc(N4CCN(CCOCCOCCOCCOc5cc(-c6scnc6C)ccc5CNC(=O)[C@@H]5C[C@@H](O)CN5C(=O)[C@H](C(C)C)N5Cc6ccccc6C5=O)CC4)cn3)nc2n(C2CCCC2)c1=O` [compound 30], for which the chromatographic logD in data set [1] is 3.1. Further, on CDK6 (0.1 μM, MM.1S cells), the “Selectivity ratio D CDK4/D CDK6” value turned out to be 1.4. For the same compound, the remaining activity at 0.1 µM came to 69% on CDK6 (setting [2]) and 94% at CDK4 (setting [3]).
As for `CC(=O)c1c(C)c2cnc(Nc3ccc(N4CCN(CCCCCCOCCCCCOCCCCCOc5cc(-c6scnc6C)ccc5CNC(=O)[C@@H]5C[C@@H](O)CN5C(=O)[C@H](C(C)C)N5Cc6ccccc6C5=O)CC4)cn3)nc2n(C2CCCC2)c1=O` [compound 31], in data set [1], the chromatographic logD stood at 5.3. Further, the figures for the remaining activity at 0.1 µM on CDK6 (setting [2]) and at CDK4 (setting [3]) were 65% and greater than 95%, respectively.
`CC(=O)c1c(C)c2cnc(Nc3ccc(N4CCN(CCOCCOCCOc5cc(-c6scnc6C)ccc5CNC(=O)[C@@H]5C[C@@H](O)CN5C(=O)[C@@H](NC(=O)C5(C#N)CC5)C(C)(C)C)CC4)cn3)nc2n(C2CCCC2)c1=O` [compound 33]: the chromatographic logD in data set [1] stood at 3. In addition, the “Selectivity ratio D CDK4/D CDK6” value at CDK6 (0.1 μM, MM.1S cells) came to 46. Besides, the remaining activity at 0.1 µM on CDK6 (setting [2]) stood at 1.4%; at CDK4 (setting [3]), 65%.
With `CN[C@H](C)C(=O)N[C@H](C(=O)N1C[C@@H](Oc2cccc(OCCOCCOCCOCCN3CCN(c4ccc(Nc5ncc6c(C)c(C(C)=O)c(=O)n(C7CCCC7)c6n5)nc4)CC3)c2)C[C@H]1C(=O)N[C@@H]1CCCc2ccccc21)C1CCCCC1` [compound 36], the chromatographic logD in data set [1] was 4.5. Further, the “D CDK6: remaining CDK6 levels” value at CDK6 (setting [4]) is “failed to degrade”. Moreover, the remaining activity at 0.1 µM at CDK6 (MM1.S, read-out: D CDK6: remaining CDK6 levels) is greater than 95%; at CDK4 (MM1.S, read-out: D CDK4: remaining CDK4 levels), greater than 95%. On CDK4 (setting [4]), the “D CDK4: remaining CDK4 levels” value is listed as “failed to degrade”.
